# Measurements as given in EP1002537A1, “Use of melarsoprol for the manufacture of a medicament for treating B-cell lymphoproliferative diseases, such as multiple myeloma” (ASSISTANCE PUBLIQUE, HOPITAUX DE PARIS, priority 1998, dated 2000).
# Legend:
# [1] = system: NCI cells; experiment: DNA fragmentation by agarose gel electrophoresis of genomic DNA; type: cell-based, human; settings: NCI cells treated with 10^-6 mol/L
# [2] = system: myeloma cells; experiment: Growth and survival of myeloma cells (summary statement); type: cell-based, human
# Excerpt: According to the present invention, melarsoprol reduces the growth and survival of myeloma cells by triggering programmed cell death.
# This supports the clinical efficacy of the melarsoprol in patients with multiple myeloma. Indeed, melarsoprol is active at concentrations ranging from 10^-6 to 10^-8 mol/L, which correspond to the in vivo pharmacological concentrations of the drugs.
# [3] = system: NCI cells; experiment: FACS analysis after annexin-V and propidium iodide staining; type: cell-based, human; settings: 10^-6 mol/L
# Method: (§1) Direction of phosphatidylserine on the outer leaflet of apoptotic cells was performed using Annexin-V-FLUOS (Boehringer Mannheim, Germany) and propidium iodide (PI) according to the manufacturer's recommendations. Expression of cell surface CD38, CD138 (BB-4° and CD15 antigens was studied using corresponding fluorescein isothiocyanate (FITC) or phycierythrin conjugated antibodies that were purchased from Diaclone (Besançon, France) and Becton Dickinson (San Jose, Ca.). Flow cytometry was performed with a FACSean apparatus (Beckton Dickinson).
# (§2) FACS analysis of NCI and U266 cells after staining with fluorescein-labelled annexin-V and propidium iodide was performed to detect the translocation of phosphatidylserine from the inner part of plasma membrane to the outer layer which accurs in the early stages of apoptosis. Before staining, cells were cultivated with medium alone) melarsoprol (10^-6 mol/L) or dexamethasone (Dex, 10^-6 mol/L) over a time period of 48 hours. […] During the same time; the number of double positive necrotic cells increased and, at 18 hours, only very few double-negative living cells were detectable. Apoptosis was moderate in cells cultured with Dex and in control culture. Annexin-positive, PI-negative apoptotic U266 cells were also observed in the presence of melarsoprol (18% of residual cells after a 18-hour culture).
# [4] = system: U266 cells; experiment: as above; type: cell-based, human; settings: 10^-6 mol/L, 18-hour culture
# Method: as §1, §2
# [5] = system: plasma-cell enriched preparations of myeloma patients; experiment: Growth (3H TdR uptake) of fresh myeloma cells; type: cell-based; settings: Homo sapiens; three plasma-cell preparations; read-out: IC50 (inhibition of cell growth)
# Excerpt: (§3) Eleven patients with multiple myeloma (MM) or plasma cell leukemia (PCL) were studied after informed consent. Mononuclear cells were separated by Ficoll-Hypaque centrifugation from peripheral blood of 4 patients with PCL (including 2 with a primary PCL), from bone marrow (BM) of 6 patients with MM (including 4 at diagnosis) and from the pleural effusion of a newly diagnosed myeloma patient. Plasma cell-enriched preparations were obtained by centrifugation of mononuclear cells on a Percoll gradient, as previously described (Iwato K, et al, Blood 72:562, 1988). Plasma cell percentages were determined after intracytoplasmic staining using fluorescein-conjugated antibodies to human immunoglobulin (Ig) heavy and light chains (from Nordic, Tilburg, The Netherlands).Short-term cultures of blood and BM mononuclear cells and of plasma cell-enriched preparations were performed in RPMI 1640, in similar conditions as cell lines.
# (§4) Cells were incubates with or without 10^-5 to 10^-8 mol/L melarsoprol up to 96 hours, without any adjustment after culture initiation. Cell number and viability were determined by trypan blue exclusion. Morphologic analysis was performed using Wright-Giema and DAPI (4'-6-diamidino-2-phenylindole) staining on cytocentrifuge preparations. […] Cells were harvested onto glass filter and ^3H-TdR incorporation was counted on a liquid scintillation counter. […]
# [6] = system: Mononuclear cells purified from peripheral blood of normal donors; experiment: Pokeweed mitogen (PWM)-induced plasma cell differentiation of normal lymphocytes; type: cell-based, human; settings: 10^-6 mol/L and 5 x10^-7 mol/L
# Method: Mononuclear blood cells of 3 normal donors were cultured in the presence of PWM (from Life Technology, Cergy Pontoise, diluted at 1/100) and melarsoprol (5 x 10^-7 or 10^-6 mol/L). Plasma cells were numerated at day 7 after immunofluorescence staining with fluorescein-conjugated antibodies directed against human Ig chains, IgM concentrations in supernatants were also measured at day 5, by ELISA, as previously described (Grillot-Courvalin C et al, Scand. J. Immunol. 23:679, 1986).
# Mononuclear cells purified from peripheral blood of normal donors were incubated with pokeweed mitogen in the presence of two different concentrations (10^-6 mol/L and 5 x10^-7 mol/L) of the organic or of the inorganic arsenical.
# [7] = system: human myeloma cells; experiment: SCID mice transplanted with human myeloma cells: efficacy; type: in vivo; settings: 30µg/g 5 days a week IP, 30 to 40 days
# Method: The following studies of melarsoprol conducted in SCID mice transplanted with human myeloma cells confirm in vivo the in vitro effects of the arsenical compound.
# (§5) SCID mice were irradiated before the intra-peritoneal (IP) injection of 3 to 5*10^6 plasma cells purified from peripheral blood of patients with plasma cell leukemia. Engrafment was assessed by bi-monthly measurement of the human monoclonal immunoglobulin (HuMIg) concentration in mouse serum, using an ELISA.
# Mice injected with the cells from 3 different patients developed the human tumor and were treated with melarsoprol during 30 to 40 days.
# [8] = system: LP1 cells; experiment: Growth inhibition of plasma cell line (cell count and thymidine incorporation); type: cell-based, human
# Method: (§6) The human myeloma cell lines were purchased from DMS (Braunschweig, Germany) (NCI H929 and LP1) and from American Type Culture Collections (Rockville, MD) (OPM2 and U266). NCI, OPM2, U266 (and all studied non plasmacytic cell lines) were cultured in RPMI 1640 supplemented with 1% penicillin/streptomycin, 1 mmol/L L-glutamine and 10% heat-inactivated fetal calf serum at 37°C, 5% CO2 in air. LP1 cells were cultured in similar conditions, in Iscove's medium.
# (§7) Cells were incubates with or without 10^-5 to 10^-8 mol/L melarsoprol up to 96 hours, without any adjustment after culture initiation. Cell number and viability were determined by trypan blue exclusion. Morphologic analysis was performed using Wright-Giema and DAPI (4'-6-diamidino-2-phenylindole) staining on cytocentrifuge preparations. For proliferation assays, aliquots of 2x10^4 cells in triplicate were incubated in 96-well plates and 3H-thymidine (3H-TdR) (1 µCi) was added for the final 8 hours of the culture period. Cells were harvested onto glass filter and ^3H-TdR incorporation was counted on a liquid scintillation counter.
# (§8) The growth of NCI, U266, OPM2 and LP1 plasma cell lines in medium alone or in the presence of melarsoprol (10^-5 to 10^-8 mol/L) was assessed by cell count and thymidine incorporation.
# [9] = system: NCI cells; experiment: as above; type: cell-based, human
# Method: as §6, §7, §8
# [10] = system: OPM2 cells; experiment: as above; type: cell-based, human
# Method: as §6, §7, §8
# [11] = system: U266; experiment: as above; type: cell-based, human; settings: U266 cells
# Method: as §6, §7, §8
# [12] = system: plasma-cell enriched preparations of myeloma patients; experiment: Viability (trypan blue exclusion) of fresh myeloma cells; type: cell-based, human; settings: 48 hours, n=4 (40 to 77.5%); 10.5 ± 14.7% without the drug
# Excerpt: as §3, §4
# [13] = SCID mice transplanted with human myeloma cells: toxicity and arsenic amounts; type: in vivo; settings: any studied organ, especially the liver
# Method: as §5
# Arsenic amounts in mouse serum and tissues were in the expected 〈〈 pharmacological 〉〉 range.
# [14] = system: myeloid cells (CD38^low, CD15 +); experiment: FACS analysis of patients' bone marrow mononuclear cells (annexin V with CD38 or CD15); type: cell-based, human
# Excerpt: as §3, §1
# (§9) To comparatively assess the effects of melarsoprol on myeloid and plasma cells, bone marrow mononuclear cells obtained from patients with newly diagnosed multiple myeloma were cultured for 5 days in the presence of 10^-6 mol/L melarsoprol. […] Indeed, in a representative study a bone marrow sample initiality containing 30% of plasma cells (CD38^higt +), 12% of the latter expressed annexin V after 2 days of culture with 10^-6 mol/L melarsoprol, whereas less than 1% of myeloid cells (CD38^low, CD15 +) were positive for the apoptosis marker. At day 5, the plasma cell number had much more decreased than the myeloid cell number and viable cells (propidium iodide negative) contained 7.8 % of CD38^higt positive cells, as compared to 22.5 % in control culture, performed with medium alone. CD15+ myelo-monocytic cell percentages were similar in arsenic-exposed cultures and in controls, with a decrease in the CD15^low+ fraction.
# [15] = system: plasma cells (CD38^higt +); experiment: as above; type: cell-based, human
# Excerpt: as §3, §1, §9
# [16] = system: secreting multiple myeloma; experiment: Bi-central, open, non-comparative study in patients with secreting multiple myeloma; type: in vivo; settings: IV 1mg/kg first day, then 2mg/kg daily, not longer than 56 days
# Method: A bi-central, open, non-comparative study of melarsoprol in patients suffering from secreting multiple myeloma was carried out.
# Patients with secreting multiple myeloma included in the study had been pretreated with and were unresponsive to a minimum of 3 VAD (vincristine-adriamycine-dexamethasone) or VAMP (vincristine-adriamycine-methylprednisolone) chemotherapy regimens.
# Patients are treated daily with co-administration of anti-convulsive and B1 vitamin for 56 days if allowed by toxicity.
# At the first day, the IV solution of melarsoprol (1mg/kg) is administered in 3 intravenous injections.
# The IV solution of melarsoprol (2mg/kg) is then administered daily and for a time period not longer than 56 days in the same manner. […]
# [17] = system: LP1 cells; experiment: Cell survival by trypan blue exclusion; type: cell-based, human; settings: LP1, after 48 hours, 10-6 mol/L melarsoprol
# Method: as §6, §7
# (§10) Treatment of plasma cell lines with melarsoprol led to a dose- and time dependent inhibition of cell survival, as determined using trypan blue exclusion. After 48 hours, in the presence of 10-6 mol/L melarsoprol , percentage of trypan blue negative cells were 15 ± 7.2, 56 ± 11, 62 ± 5 8, and 81 ± 6.8% in NCI, OPM2, U266 and LP1 cells, respectively. Cell death was mainly due to apoptosis, as shown by the characteristic morphological changes in nuclei as well as by the TUNEL method.
# [18] = system: NCI; experiment: Cell survival by trypan blue exclusion; type: cell-based, human; settings: after 48 hours, 10-6 mol/L melarsoprol
# Method: as §6, §7, §10
# [19] = system: OPM2; experiment: Cell survival by trypan blue exclusion; type: cell-based, human; settings: OPM2, after 48 hours, 10-6 mol/L melarsoprol
# Method: as §6, §7, §10
# [20] = system: leukemia; settings: IV daily for 3 days, repeated weekly for 3 weeks, 1 to 3,6mg/kg; cited from earlier work
# [21] = system: T, myeloid and epithelial cell lines; experiment: Comparative example: growth of other hematopoietic cell types; type: cell-based
# Method: as §6, §7
# In addition to plasma cell, other hematopoietic cell types were also studied. The inhibition of growth was marginal in T, myeloid and epithelial cell lines.
# [22] = 2 days of culture, 10^-6 mol/L, representative bone marrow sample
smiles,measurement,setting,value
"Nc1nc(N)nc(Nc2ccc([As]3SCC(CO)S3)cc2)n1 (stereo not drawn) [melarsoprol, 2-p-[(4,6-diamino-s-triazin-2-yl)amino]phenyl-4-hydroxymethyl-1,3,2-dithiarsoline]",DNA fragmentation,[1],typical DNA ladders
same,active concentrations,[2],10^-6 to 10^-8 mol/L
same,double-negative living cells,[3]; at 18 hours,only very few
same,"apoptosis (annexin-positive, PI-negative apoptotic cells)",[3]; time period of 48 hours,rapidly induced apoptosis
same,"Annexin-positive, PI-negative apoptotic U266 cells",[4],18 % of residual cells
same,IC50,[5],~100 nM
same,plasma cell differentiation induced by the mitogen,[6],only slightly inhibited
same,remissions,[7]; all evaluable experiment,remissions have been achieved
same,level of the HuMIg in mouse serum,[7]; undetectable in some animals,dramatic decrease
same,IC50,"[8]; Homo sapiens, LP-1, LP1 cells, growth inhibition",~1000 nM
same,time-dependent inhibition of growth,[8]; LPI cells,significant but less important inhibition of growth
same,time-dependent inhibition of growth,[9],marked time-dependent inhibition of growth
same,IC50,"[9]; Homo sapiens, 72 hours, cell number and thymidine incorporation, read-out: 50% growth inhibitory concentration (IC50) (converted)",300 nM
same,time-dependent inhibition of growth,[10],marked time-dependent inhibition of growth
same,IC50,"[10]; Homo sapiens, OPM-2, growth inhibition",~100 nM
same,IC50,"[11]; Homo sapiens, U-266, growth inhibition",~1000 nM
same,time-dependent inhibition of growth,[11],significant but less important inhibition of growth
same,mean decline in cell viability,[12],52.5 ± 17.3%
same,toxic lesions in studied organs,[13],no evidence of toxic lesions
same,"myeloid cells (CD38^low, CD15 +) positive for the apoptosis marker",[14]; [22],less than 1%
same,CD15+ myelo-monocytic cell percentages versus controls,"[14]; day 5, 10^-6 mol/L",similar
same,plasma cells (CD38^higt +) expressing annexin V,[15]; [22],12%
same,percent CD38-high plasma cells among viable cells at 1 µM,"[15]; Homo sapiens, 120 h, read-out: CD38^higt positive cells among viable cells (propidium iodide negative)",7.8%
same,Efficiency for treating multiple myeloma and reduced side-effects,[16],verified
same,percentage of trypan blue negative cells,[17],81 ± 6.8%
same,percentage of trypan blue negative cells,[18],15 ± 7.2%
same,percentage of trypan blue negative cells,[19],56 ± 11%
same,CNS toxicity,[20],excessive CNS (central nervous system) toxicity
same,anti-leukemic activity,[20],no major anti-leukemic activity
same,inhibition of growth,[21],marginal
